Results published in ChEMBL document CHEMBL4732080, “Polypharmacological drug actions of recently FDA approved antibiotics” (Eur J Med Chem, 2021).
In brackets after ≈: the same amount, converted by molar mass.

What was measured:
Albumin = Albumin (Homo sapiens, UniProt P02768); experiment: Protein binding to human serum albumin; type: ADME, cell-free; details: read-out: PB (converted)
Staphylococcus aureus = experiment: Antibacterial activity against methicillin-resistant Staphylococcus aureus; type: functional
[1] = Terminal half life in human; type: ADME; details: read-out: beta t1/2 (converted)
[2] = Terminal half life in human at 10 mg/kg, administered as single dose measured over 2 hrs; type: ADME, organism-based; details: in vivo, read-out: beta t1/2 (converted)

Sequence of Albumin (P02768 whole entry): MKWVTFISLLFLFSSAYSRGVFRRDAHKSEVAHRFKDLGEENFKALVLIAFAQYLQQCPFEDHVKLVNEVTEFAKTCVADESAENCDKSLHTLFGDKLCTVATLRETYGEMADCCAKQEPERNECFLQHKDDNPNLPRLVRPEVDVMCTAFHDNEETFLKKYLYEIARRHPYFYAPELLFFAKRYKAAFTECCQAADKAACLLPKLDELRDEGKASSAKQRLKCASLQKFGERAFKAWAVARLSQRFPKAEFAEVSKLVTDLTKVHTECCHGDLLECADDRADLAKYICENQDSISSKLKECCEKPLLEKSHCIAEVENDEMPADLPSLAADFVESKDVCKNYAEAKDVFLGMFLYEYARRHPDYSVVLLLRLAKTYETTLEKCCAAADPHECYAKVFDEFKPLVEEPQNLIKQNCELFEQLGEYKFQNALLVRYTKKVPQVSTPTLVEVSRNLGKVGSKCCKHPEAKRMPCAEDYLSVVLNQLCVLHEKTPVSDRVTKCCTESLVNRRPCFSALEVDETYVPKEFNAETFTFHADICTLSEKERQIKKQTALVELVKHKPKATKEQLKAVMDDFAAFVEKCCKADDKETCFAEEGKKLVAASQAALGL

half-life [2] [h]	SMILES	fraction unbound (Albumin)	MIC50 (Staphylococcus aureus) [µg/mL]	half-life [1] [h]
	CN[C@H](CC(C)C)C(=O)N[C@H]1C(=O)N[C@@H](CC(N)=O)C(=O)N[C@H]2C(=O)N[C@H]3C(=O)N[C@H](C(=O)N[C@H](C(=O)O)c4cc(O)cc(O)c4-c4cc3ccc4O)[C@H](O)c3ccc(c(Cl)c3)Oc3cc2cc(c3O[C@@H]2O[C@H](CO)[C@@H](O)[C@H](O)[C@H]2O[C@H]2C[C@](C)(N)[C@H](O)[C@H](C)O2)Oc2ccc(cc2Cl)[C@H]1O [VANCOMYCIN]	0.9	1 (≈ 0.69 µM)	6
7.5	CCCCCCCCCCNCCN[C@@]1(C)C[C@H](O[C@H]2[C@H](Oc3c4cc5cc3Oc3ccc(cc3Cl)[C@@H](O)[C@@H](NC(=O)[C@@H](CC(C)C)NC)C(=O)N[C@@H](CC(N)=O)C(=O)N[C@H]5C(=O)N[C@H]3C(=O)N[C@H](C(=O)N[C@H](C(=O)O)c5cc(O)c(CNCP(=O)(O)O)c(O)c5-c5cc3ccc5O)[C@H](O)c3ccc(c(Cl)c3)O4)O[C@H](CO)[C@@H](O)[C@@H]2O)O[C@@H](C)[C@H]1O [TELAVANCIN]	0.07		
	CN[C@H](CC(C)C)C(=O)N[C@H]1C(=O)N[C@@H](CC(N)=O)C(=O)N[C@H]2C(=O)N[C@H]3C(=O)N[C@H](C(=O)N[C@H](C(=O)O)c4cc(O)cc(O)c4-c4cc3ccc4O)[C@H](O[C@H]3C[C@](C)(N)[C@@H](O)[C@H](C)O3)c3ccc(c(Cl)c3)Oc3cc2cc(c3O[C@@H]2O[C@H](CO)[C@@H](O)[C@H](O)[C@H]2O[C@H]2C[C@](C)(NCc3ccc(-c4ccc(Cl)cc4)cc3)[C@@H](O)[C@H](C)O2)Oc2ccc(cc2Cl)[C@H]1O [ORITAVANCIN]	0.1		195
